Results: the kinase profiling compilation of Christmann-Franck et al. (2016)

Key:
Experiment in all cases: radiometric filter-binding kinase assay, Kinase HotSpot
Conditions in all cases: compound 0.5 µM; ATP 10 µM
ABL1 (human) = ABL1 (human) (UniProt P00519)
ACVR1 (human) = ACVR1 (human) (UniProt Q04771)
ADRBK1 (human) = ADRBK1 (human) (UniProt P25098)
ADRBK2 (human) = ADRBK2 (human) (UniProt P35626)
CAMK1G (human) = CAMK1G (human) (UniProt Q96NX5)
CDC42BPB (human) = CDC42BPB (human) (UniProt Q9Y5S2)
CDK1 CCNB1 (human) = CDK1 CCNB1 (human) (UniProt P06493+P14635)
CHUK (human) = CHUK (human) (UniProt O15111)
DAPK3 (human) = DAPK3 (human) (UniProt O43293)
DYRK1A (human) = DYRK1A (human) (UniProt Q13627)
DYRK2 (human) = DYRK2 (human) (UniProt Q92630)
EPHA6 (human) = EPHA6 (human) (UniProt Q9UF33)
EPHB3 (human) = EPHB3 (human) (UniProt P54753)
ERBB2 (human) = ERBB2 (human) (UniProt P04626)
FGR (human) = FGR (human) (UniProt P09769)
Chain of FGR (human) (P09769 whole entry, looked up): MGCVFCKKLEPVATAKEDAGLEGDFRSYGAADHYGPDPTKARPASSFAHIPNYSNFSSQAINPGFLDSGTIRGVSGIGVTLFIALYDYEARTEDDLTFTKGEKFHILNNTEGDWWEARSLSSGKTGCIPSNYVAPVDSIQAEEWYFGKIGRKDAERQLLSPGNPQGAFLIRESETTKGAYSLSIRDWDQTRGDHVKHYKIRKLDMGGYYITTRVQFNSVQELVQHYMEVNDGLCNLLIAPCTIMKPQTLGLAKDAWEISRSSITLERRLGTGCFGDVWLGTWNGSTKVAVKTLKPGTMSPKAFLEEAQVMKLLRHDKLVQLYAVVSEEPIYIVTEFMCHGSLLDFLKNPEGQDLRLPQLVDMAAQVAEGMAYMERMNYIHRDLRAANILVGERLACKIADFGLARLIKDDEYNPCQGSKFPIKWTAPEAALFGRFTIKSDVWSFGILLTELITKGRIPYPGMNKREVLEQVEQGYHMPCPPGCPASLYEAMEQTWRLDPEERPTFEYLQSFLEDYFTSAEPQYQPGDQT

IKBKB (human) = IKBKB (human) (UniProt O14920)
ITK (human) = ITK (human) (UniProt Q08881)
LRRK2 (human) = LRRK2 (human) (UniProt Q5S007)
MAP2K1 (human) = MAP2K1 (human) (UniProt Q02750)
MYO3B (human) = MYO3B (human) (UniProt Q8WXR4)
NEK6 (human) = NEK6 (human) (UniProt Q9HC98)
NEK9 (human) = NEK9 (human) (UniProt Q8TD19)
NTRK1 (human) = NTRK1 (human) (UniProt P04629)
Chain of NTRK1 (human) (P04629 whole entry, looked up): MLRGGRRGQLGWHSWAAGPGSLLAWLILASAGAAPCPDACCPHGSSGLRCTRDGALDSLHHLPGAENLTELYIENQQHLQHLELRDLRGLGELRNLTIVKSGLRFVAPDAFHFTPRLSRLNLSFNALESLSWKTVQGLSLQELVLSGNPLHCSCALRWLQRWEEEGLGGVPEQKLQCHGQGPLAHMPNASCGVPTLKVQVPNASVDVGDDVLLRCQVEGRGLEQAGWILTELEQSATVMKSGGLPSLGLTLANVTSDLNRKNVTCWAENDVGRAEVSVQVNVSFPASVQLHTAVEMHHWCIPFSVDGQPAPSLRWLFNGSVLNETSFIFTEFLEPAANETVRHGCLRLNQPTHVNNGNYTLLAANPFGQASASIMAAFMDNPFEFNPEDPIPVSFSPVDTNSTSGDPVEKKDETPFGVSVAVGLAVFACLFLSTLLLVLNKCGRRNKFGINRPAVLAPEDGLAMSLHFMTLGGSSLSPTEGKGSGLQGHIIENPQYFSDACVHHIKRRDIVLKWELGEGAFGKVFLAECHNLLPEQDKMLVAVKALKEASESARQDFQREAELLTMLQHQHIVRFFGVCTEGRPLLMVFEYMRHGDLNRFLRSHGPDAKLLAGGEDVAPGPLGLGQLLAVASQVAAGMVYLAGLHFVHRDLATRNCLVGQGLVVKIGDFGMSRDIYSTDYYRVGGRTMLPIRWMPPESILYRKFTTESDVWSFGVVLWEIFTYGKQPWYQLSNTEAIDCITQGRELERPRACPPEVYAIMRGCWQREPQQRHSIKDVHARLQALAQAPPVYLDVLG

PAK1 (human) = PAK1 (human) (UniProt Q13153)
PDPK1 (human) = PDPK1 (human) (UniProt O15530)
Chain of PDPK1 (human) (O15530 whole entry, looked up): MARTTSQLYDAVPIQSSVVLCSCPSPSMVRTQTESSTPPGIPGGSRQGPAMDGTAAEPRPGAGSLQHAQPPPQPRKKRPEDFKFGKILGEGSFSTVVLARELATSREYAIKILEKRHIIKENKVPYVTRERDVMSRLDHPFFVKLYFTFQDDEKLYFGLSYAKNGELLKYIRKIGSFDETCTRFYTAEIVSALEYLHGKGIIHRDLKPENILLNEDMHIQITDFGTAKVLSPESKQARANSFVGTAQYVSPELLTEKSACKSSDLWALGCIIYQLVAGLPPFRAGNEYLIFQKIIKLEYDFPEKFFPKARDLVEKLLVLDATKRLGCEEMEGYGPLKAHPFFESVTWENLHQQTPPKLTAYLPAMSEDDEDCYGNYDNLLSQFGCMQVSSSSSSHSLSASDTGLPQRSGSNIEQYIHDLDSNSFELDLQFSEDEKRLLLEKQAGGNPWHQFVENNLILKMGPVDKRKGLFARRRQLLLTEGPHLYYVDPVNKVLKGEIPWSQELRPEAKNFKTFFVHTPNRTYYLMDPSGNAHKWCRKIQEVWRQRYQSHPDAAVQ

PIM2 (human) = PIM2 (human) (UniProt Q9P1W9)
PRKACG (human) = PRKACG (human) (UniProt P22612)
PRKCI (human) = PRKCI (human) (UniProt P41743)
RET (human) = RET (human) (UniProt P07949)
Chain of RET (human) (P07949 whole entry, looked up): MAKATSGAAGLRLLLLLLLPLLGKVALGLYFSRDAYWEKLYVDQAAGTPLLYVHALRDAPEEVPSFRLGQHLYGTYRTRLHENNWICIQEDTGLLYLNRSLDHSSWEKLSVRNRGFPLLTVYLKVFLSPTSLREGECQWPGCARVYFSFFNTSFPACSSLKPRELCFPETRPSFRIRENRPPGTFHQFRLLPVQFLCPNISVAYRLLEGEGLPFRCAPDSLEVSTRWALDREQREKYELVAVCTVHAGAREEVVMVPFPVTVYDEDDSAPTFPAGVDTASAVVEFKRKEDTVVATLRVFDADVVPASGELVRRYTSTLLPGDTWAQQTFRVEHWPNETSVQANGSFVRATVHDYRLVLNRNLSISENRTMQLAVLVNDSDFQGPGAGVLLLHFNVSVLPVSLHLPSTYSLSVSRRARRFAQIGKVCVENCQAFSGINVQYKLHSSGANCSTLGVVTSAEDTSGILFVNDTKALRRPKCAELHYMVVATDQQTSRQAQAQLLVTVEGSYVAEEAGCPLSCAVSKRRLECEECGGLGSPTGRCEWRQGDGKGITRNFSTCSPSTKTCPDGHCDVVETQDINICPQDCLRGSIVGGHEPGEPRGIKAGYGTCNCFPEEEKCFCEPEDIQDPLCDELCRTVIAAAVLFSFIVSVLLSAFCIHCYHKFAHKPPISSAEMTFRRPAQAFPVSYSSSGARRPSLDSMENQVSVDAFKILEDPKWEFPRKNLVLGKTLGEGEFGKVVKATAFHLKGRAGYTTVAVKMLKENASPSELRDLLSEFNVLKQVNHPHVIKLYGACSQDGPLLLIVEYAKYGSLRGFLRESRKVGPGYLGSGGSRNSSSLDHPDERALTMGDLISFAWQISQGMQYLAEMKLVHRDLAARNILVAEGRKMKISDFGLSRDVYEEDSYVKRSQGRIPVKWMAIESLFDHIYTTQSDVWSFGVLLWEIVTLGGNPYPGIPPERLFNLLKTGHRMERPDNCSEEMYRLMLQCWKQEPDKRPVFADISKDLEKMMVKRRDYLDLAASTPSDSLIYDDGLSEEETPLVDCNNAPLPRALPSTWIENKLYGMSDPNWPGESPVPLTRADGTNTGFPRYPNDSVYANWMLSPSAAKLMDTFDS

ROCK2 (human) = ROCK2 (human) (UniProt O75116)
SGK3 (human) = SGK3 (human) (UniProt Q96BR1)
Chain of SGK3 (human) (Q96BR1 whole entry, looked up): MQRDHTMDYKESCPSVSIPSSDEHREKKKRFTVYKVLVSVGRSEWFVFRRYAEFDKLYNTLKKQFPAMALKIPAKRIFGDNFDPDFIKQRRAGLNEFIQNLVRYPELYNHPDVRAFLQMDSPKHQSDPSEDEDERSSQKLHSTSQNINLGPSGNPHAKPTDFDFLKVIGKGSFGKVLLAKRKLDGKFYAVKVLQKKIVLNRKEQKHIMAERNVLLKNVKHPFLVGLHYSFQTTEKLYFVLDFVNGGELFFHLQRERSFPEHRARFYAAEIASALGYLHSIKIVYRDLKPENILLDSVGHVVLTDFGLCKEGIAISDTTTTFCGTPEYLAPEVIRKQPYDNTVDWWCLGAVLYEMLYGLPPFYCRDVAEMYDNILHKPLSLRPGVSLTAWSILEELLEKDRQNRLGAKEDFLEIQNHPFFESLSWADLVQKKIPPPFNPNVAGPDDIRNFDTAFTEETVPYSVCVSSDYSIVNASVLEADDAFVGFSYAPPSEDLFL

STK10 (human) = STK10 (human) (UniProt O94804)
STK3 (human) = STK3 (human) (UniProt Q13188)
STK38 (human) = STK38 (human) (UniProt Q15208)
TLK2 (human) = TLK2 (human) (UniProt Q86UE8)
TNK2 (human) = TNK2 (human) (UniProt Q07912)
TSSK2 (human) = TSSK2 (human) (UniProt Q96PF2)
Chain of TSSK2 (human) (Q96PF2 whole entry, looked up): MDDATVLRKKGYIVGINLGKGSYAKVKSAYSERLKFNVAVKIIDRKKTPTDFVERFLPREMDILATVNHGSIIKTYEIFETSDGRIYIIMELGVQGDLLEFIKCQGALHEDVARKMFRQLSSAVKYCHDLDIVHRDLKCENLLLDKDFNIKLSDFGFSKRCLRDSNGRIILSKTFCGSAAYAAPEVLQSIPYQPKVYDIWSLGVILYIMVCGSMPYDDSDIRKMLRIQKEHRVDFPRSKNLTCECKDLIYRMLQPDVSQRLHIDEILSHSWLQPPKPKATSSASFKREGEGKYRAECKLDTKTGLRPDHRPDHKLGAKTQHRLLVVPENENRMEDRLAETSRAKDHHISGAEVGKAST

TXK (human) = TXK (human) (UniProt P42681)
ULK1 (human) = ULK1 (human) (UniProt O75385)
ULK3 (human) = ULK3 (human) (UniProt Q6PHR2)
BRAF (human) = BRAF (human) (UniProt P15056)

Chain of CAMK1G (human) (Q96NX5 whole entry, looked up): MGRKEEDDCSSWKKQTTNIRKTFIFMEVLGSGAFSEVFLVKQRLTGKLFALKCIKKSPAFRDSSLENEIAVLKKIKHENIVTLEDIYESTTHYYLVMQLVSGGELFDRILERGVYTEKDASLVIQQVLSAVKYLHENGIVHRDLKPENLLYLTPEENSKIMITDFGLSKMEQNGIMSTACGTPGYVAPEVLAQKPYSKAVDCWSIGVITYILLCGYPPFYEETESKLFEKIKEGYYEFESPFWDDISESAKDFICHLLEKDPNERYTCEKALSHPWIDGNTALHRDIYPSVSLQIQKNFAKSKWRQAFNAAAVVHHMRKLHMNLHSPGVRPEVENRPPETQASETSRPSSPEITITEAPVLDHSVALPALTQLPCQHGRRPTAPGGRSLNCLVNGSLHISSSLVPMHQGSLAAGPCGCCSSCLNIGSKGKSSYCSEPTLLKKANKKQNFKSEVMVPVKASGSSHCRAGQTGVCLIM
Chain of ADRBK1 (human) (P25098 whole entry, looked up): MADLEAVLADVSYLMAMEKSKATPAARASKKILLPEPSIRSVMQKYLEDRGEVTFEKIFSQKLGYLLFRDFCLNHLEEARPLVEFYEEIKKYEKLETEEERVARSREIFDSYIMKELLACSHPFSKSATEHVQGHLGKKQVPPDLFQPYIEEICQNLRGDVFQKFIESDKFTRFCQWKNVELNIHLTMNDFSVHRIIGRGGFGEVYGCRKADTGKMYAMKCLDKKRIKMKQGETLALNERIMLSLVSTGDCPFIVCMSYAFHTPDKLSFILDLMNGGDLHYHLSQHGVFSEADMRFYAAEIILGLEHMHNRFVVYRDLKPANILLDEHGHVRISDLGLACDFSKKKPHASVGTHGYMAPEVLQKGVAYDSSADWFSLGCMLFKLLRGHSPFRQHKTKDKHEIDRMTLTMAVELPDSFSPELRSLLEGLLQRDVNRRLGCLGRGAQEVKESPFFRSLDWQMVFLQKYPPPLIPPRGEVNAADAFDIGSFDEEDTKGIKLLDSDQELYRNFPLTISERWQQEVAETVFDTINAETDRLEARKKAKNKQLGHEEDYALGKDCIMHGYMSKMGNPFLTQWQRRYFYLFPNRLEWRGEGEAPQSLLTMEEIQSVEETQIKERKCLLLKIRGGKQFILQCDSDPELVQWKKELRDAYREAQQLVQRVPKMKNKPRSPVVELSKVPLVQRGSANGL

Row | Structure (SMILES) | residual activity (ABL1 (human)) [%] | residual activity (ACVR1 (human)) [%] | residual activity (ADRBK1 (human)) [%] | residual activity (ADRBK2 (human)) [%] | residual activity (CAMK1G (human)) [%] | residual activity (CDC42BPB (human)) [%] | residual activity (CDK1 CCNB1 (human)) [%] | residual activity (CHUK (human)) [%] | residual activity (DAPK3 (human)) [%] | residual activity (DYRK1A (human)) [%] | residual activity (DYRK2 (human)) [%] | residual activity (EPHB3 (human)) [%] | residual activity (ERBB2 (human)) [%] | residual activity (FGR (human)) [%] | residual activity (IKBKB (human)) [%] | residual activity (ITK (human)) [%] | residual activity (LRRK2 (human)) [%] | residual activity (MAP2K1 (human)) [%] | residual activity (NEK6 (human)) [%] | residual activity (NEK9 (human)) [%] | other results
1 | Cn1nc2c3c(cccc31)C(=O)c1ccccc1-2 | 99.1 | 110 | 103 | 93.6 | 95.5 | 98 | 108 | 97 | 102 | 94.1 | 99.4 | 85.5 | 96.9 | 93.4 | 103 | 88.3 | 55.9 | 86.3 | 108 | 96.6 | residual activity (EPHA6 (human)): 87.6%; residual activity (MYO3B (human)): 97.7%; residual activity (NTRK1 (human)): 95%; residual activity (PAK1 (human)): 98.5%; residual activity (PDPK1 (human)): 94.5%; residual activity (PIM2 (human)): 105%; residual activity (PRKACG (human)): 107%; residual activity (PRKCI (human)): 98.5%; residual activity (RET (human)): 83.8%; residual activity (ROCK2 (human)): 92.3%; residual activity (SGK3 (human)): 107%; residual activity (STK10 (human)): 94.5%; residual activity (STK3 (human)): 88.4%; residual activity (STK38 (human)): 98.5%; residual activity (TLK2 (human)): 101%; residual activity (TNK2 (human)): 83.3%; residual activity (TSSK2 (human)): 95.4%; residual activity (TXK (human)): 92%; residual activity (ULK1 (human)): 101%; residual activity (ULK3 (human)): 94.9%
2 | CN([C@@H](Cc1ccc(OS(=O)(=O)c2cccc3cnccc23)cc1)C(=O)N1CCN(c2ccccc2)CC1)S(=O)(=O)c1cccc2cnccc12 | 100 | 95 | 97.5 | 113 | 93.6 | 103 | 108 | 93.4 | 106 | 102 | 97.7 | 97 | 96 | 99.5 | 96.7 | 99.4 | 97.1 | 75.3 | 101 | 97.6 | residual activity (EPHA6 (human)): 94.9%; residual activity (MYO3B (human)): 88.5%; residual activity (NTRK1 (human)): 111%; residual activity (PAK1 (human)): 95.7%; residual activity (PDPK1 (human)): 96.4%; residual activity (PIM2 (human)): 98.5%; residual activity (PRKACG (human)): 107%; residual activity (PRKCI (human)): 93.8%; residual activity (RET (human)): 105%; residual activity (ROCK2 (human)): 105%; residual activity (SGK3 (human)): 104%; residual activity (STK10 (human)): 96.3%; residual activity (STK3 (human)): 98.8%; residual activity (STK38 (human)): 97.2%; residual activity (TLK2 (human)): 100%; residual activity (TNK2 (human)): 94.8%; residual activity (TSSK2 (human)): 105%; residual activity (TXK (human)): 94.3%; residual activity (ULK1 (human)): 101%; residual activity (ULK3 (human)): 98.6%
3 | Cn1cnc2cc3c(Nc4cccc(Br)c4)ncnc3cc21 | 32.6 | 109 | 100 | 89.9 | 94.2 | 104 | 97.9 | 89.7 | 93.7 | 106 | 95.5 | 93.8 | 47.4 | 55.8 | 104 | 102 | 68.2 | 113 | 98.1 | 90 | residual activity (BRAF (human)): 94.2%; residual activity (NTRK1 (human)): 90.8%; residual activity (PAK1 (human)): 91.4%; residual activity (PDPK1 (human)): 98.8%; residual activity (PIM2 (human)): 113%; residual activity (PRKCI (human)): 100%; residual activity (RET (human)): 54.4%; residual activity (ROCK2 (human)): 88.5%; residual activity (SGK3 (human)): 107%; residual activity (STK10 (human)): 35.8%; residual activity (STK3 (human)): 89.9%; residual activity (TNK2 (human)): 87.3%; residual activity (TSSK2 (human)): 111%; residual activity (TXK (human)): 86.7%; residual activity (ULK1 (human)): 113%
